From the NIST ThermoML archive (doi:10.1021/je034153o)
Where “and” joins values, the source holds several entries; their conditions need not be identical. Identical values can stand only once. ± gives the expanded uncertainty stated by the source.

Settings: 303.15 K; Liquid; Closed cell (Static) method

Row | SMILES | vapor or sublimation pressure
1 | ClCCl [dichloromethane] | 70.49 ± 0.27 kPa
2 | ClC(Cl)Cl [trichloromethane] | 32.41 ± 0.13 kPa
3 | ClC(Cl)(Cl)Cl [tetrachloromethane] | 18.83 ± 0.083 kPa
4 | CCOCCO [2-ethoxyethan-1-ol] | 0.981 ± 0.017 kPa and 0.984 ± 0.017 kPa and 0.968 ± 0.017 kPa
